# Results from US9624243B2, “Heterocyclic compounds and methods of their use” (Novartis AG, priority 2012, dated 2017).
# Molecular target: AT2 receptor (Homo sapiens (Human), UniProt P50052)
# Assay: AT2 Receptor Binding
# Settings: HEK293 AT2 receptor transient cell membranes, [125I]-CGP42112A
# Description: 1. Trypsin-EDTA (for Preparation of 100 mL)
# • Dissolve trypsin in 2% EDTA and PBS completely; sterilize the solution by passing through a […] membrane filter; store at 4° C.
# 2. DMEM Medium (for Preparation of 1 L) • The powder was dissolved into 950 mL of distilled water with gentle stirring until the solution becomes clear. • Add. NaHCO3 1.176 g for DMEM medium. • Adjust pH of medium to 0.2˜0.3 below final working pH using 1 M NaOH or 1 M • HCl. Add slowly with stirring. • Dilute to 1 liter with ddH2O. • Sterilize the medium immediately by filtration. • Store at 4° C.
# 3. TE Buffer • 20 mM Tris-HCl, pH 7.4, • 5 mM EDTA
# 4. Binding Assay Buffer • 50 mM Hepes, pH 7.4 • 5 mM MgCl2 • 1 mM CaCl2 • 0.2% BSA
# 5. Wash Buffer • 50 mM Hepes, pH 7.4 Procedures for HEK293AT2 Receptor Transient Cell Transfection • Cells were plated into 150 mm dish at 50% density for transient transfection. Cells were ready for transfection after overnight incubation (the confluence reaches around 80%). • 75 μL Lipofectamine™2000 diluted in 6.25 mL OptiMEM I Reduced Serum Medium, was mixed gently, and incubated at room temperature for 5 minutes. 50 μg expression plasmid DNA diluted in 6.25 mL OptiMEM I Reduced Serum Medium without serum was mixed gently. • After the 5 minute incubation, the diluted DNA was combined with the diluted Lipofectamine™2000 (total volume is 12.5 mL). The mixture was mixed gently and incubated for 30 minutes at room temperature to allow the DNA-Lipofectamine™2000 complexes to form. • The 12.5 mL DNA-Lipofectamine™2000 complexes were added into the 150 mm dish and mixed gently by rocking the dish back and forth. • The cells were incubated at 37° C. with 5% CO2 for 48 hours. Cells were collected and stored frozen at −80° C. Procedures for HEK293AT2 Receptor Cell Membrane Preparation • Frozen HEK293AT2 receptor (transient transfected) cells were homogenized in ice cold TE buffer for 10s. • The homogenate was centrifuged at 25,000 g for 30 minutes. • The pellet was resuspended in ice cold tissue buffer. • Protein concentrations were determined using Bradford assay method with BSA as standard. • The membrane protein was frozen under −80° C. Compound Preparation
# Solutions of all compounds were prepared bymicroplate liquid handling equipment such as Janus or Precision 2000. Compounds, dissolved in DMSO were stored in a Freezer. Compounds were prepared from 30 mM in 100% DMSO.
# Step 1: Dose Plate Preparation (96 Well Plate)
# • Add the 3 μL [30 mM] compound stock to column 1 on the plate. • Add 15 μL of 100% DMSO to column 1. • Add 10.81 μL of 100% DMSO to column 2-12. • Transfer 5 μL from column 1 into column 2 (half log dilution). • Transfer 5 μL from column 2 into column 3 (half log dilution). • Transfer 5 μL from column 3 into column 4 (half log dilution). • Transfer 5 μL from column 4 into column 5 (half log dilution). • Transfer 5 μL from column 5 into column 6 (half log dilution). • Transfer 5 μL from column 6 into column 7 (half log dilution). • Transfer 5 μL from column 7 into column 8 (half log dilution). • Transfer 5 μL from column 8 into column 9 (half log dilution). • Transfer 5 μL from column 9 into column 10 (half log dilution) • Transfer 5 μL from column 10 into column 11 (half log dilution) • Transfer 5 μL from column 11 into column 12 (half log dilution).
# All the compounds were diluted using Precision 2000 microplate liquid handling equipment. The top concentration of compound was 5 mM with 100% DMSO.
# Step 2: Working Plate Preparation (96 Well Plate)
# • Compounds were diluted 50-fold with buffer. • 49 μL buffer was added to the well of 96 well plate. • 1 μL compound solution from dose plate was transferred to the corresponding well of working plate. • The top concentration of compound was 100 μM with 2% DMSO. Step 3: Assay Plate Preparation (96 Well Plate)
# 15 μL of compound solution was transferred from each well of working plate to the well of assay plate by Janus.
# Chain of AT2 receptor (P50052 whole entry, species assumed): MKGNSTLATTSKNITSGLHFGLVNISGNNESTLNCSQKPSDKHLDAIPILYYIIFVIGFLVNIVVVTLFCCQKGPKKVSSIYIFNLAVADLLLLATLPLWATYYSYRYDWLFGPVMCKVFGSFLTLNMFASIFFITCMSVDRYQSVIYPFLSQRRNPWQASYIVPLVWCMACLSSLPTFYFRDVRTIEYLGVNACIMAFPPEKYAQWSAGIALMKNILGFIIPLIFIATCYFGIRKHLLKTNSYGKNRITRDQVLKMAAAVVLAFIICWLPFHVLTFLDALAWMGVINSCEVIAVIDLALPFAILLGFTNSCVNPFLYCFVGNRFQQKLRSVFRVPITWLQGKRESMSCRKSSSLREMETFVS
row,Compound,IC50 [nM]
1,O=C(O)[C@@H]1C[C@H](N2CC[C@H](c3ccccc3)C2)CN1C(=O)C(c1ccccc1)c1ccccc1 [Compound 87],43.6
2,"O=C1NCC2(CCN([C@H]3C[C@@H](C(=O)O)N(C(=O)C(c4ccccc4)c4ccccc4)C3)CC2)C1c1ccccc1 (stereo partly drawn) [Compound 65, (2S,4S)-1-(2,2-diphenylacetyl)-4-(3-oxo-4-phenyl-2,8-diazaspiro[4,5]decan-8-yl)pyrrolidine-2-carboxylic acid]",1600
3,"O=C(O)[C@@H]1C[C@H](OCC#Cc2ccccc2)CN1C(=O)C(c1ccccc1)c1ccccc1 [Compound 36, (2S,4S)-1-(2,2-diphenylacetyl)-4-((3-phenylprop-2-yn-1-yl)-oxy)pyrrolidine-2-carboxylic acid]",1660
4,"O=C(O)[C@@H]1C[C@H](Oc2ccccc2Oc2ccccc2)CN1C(=O)C(c1ccccc1)c1ccccc1 [Compound 35, (2S,4S)-1-(2,2-diphenylacetyl)-4-(2-phenoxyphenoxy)-pyrrolidine-2-carboxylic acid]",540
5,"O=C(O)[C@@H]1C[C@H](OC[C@@H]2C[C@@H]2c2ccccc2)CN1C(=O)C(c1ccccc1)c1ccccc1 (mixture of isomers) [Compound 17, (2S,4S)-1-(2,2-diphenylacetyl)-4-(((1R,2S)-2-phenylcyclopropyl)methoxy)pyrrolidine-2-carboxylic acid and (2S,4S)-1-(2,2-diphenylacetyl)-4-(((1S,2R)-2-phenylcyclopropyl)methoxy)pyrrolidine-2-carboxylic acid]",3970
6,"O=C(O)[C@@H]1C[C@H](S(=O)(=O)CCCc2ccc(F)cc2)CN1C(=O)C(c1ccccc1)c1ccccc1 [Compound 134, (2S,4S)-1-(2,2-diphenylacetyl)-4((3-(4-fluorophenyl)propyl)sulfonyl)pyrrolidine-2-carboxylic acid]",954
7,"O=C(O)[C@@H]1C[C@H](N2CCC[C@@H]3CN(Cc4ccccc4)C[C@@H]32)CN1C(=O)C(c1ccccc1)c1ccccc1 [Compound 85, (2S,4S)-4-((4aR,7aR)-6-benzoctahydro-1H-pyrrolo[3,4-b]-pyridin-1-yl)-1-(2,2-diphenylacetyl)pyrrolidine-2-carboxylic acid]",103
8,"CN(CCCc1ccc(F)cc1)[C@H]1C[C@@H](C(=O)NS(=O)(=O)N(C)C)N(C(=O)C(c2ccccc2)c2ccccc2)C1 [Compound 114, (2S,4S)—N—(N,N-dimethylsulfamoyl)-1-(2,2-diphenylacetyl)-4-((3-(4-fluorophenyl)propyl)(methyl)amino)pyrrolidine-2-carboxylic acid]",17.1
9,"O=C(O)[C@H]1[C@H](OCCCc2ccccc2)CN1C(=O)C(c1ccccc1)c1ccccc1 (mixture of isomers) [Compound 143, (2R,3R)-3-(3-phenylpropoxy)-1-(2,2-diphenylacetyl)-azetidine-2-carboxylic acid and (2S,3S)-3-(3-phenylpropoxy)-1-(2,2-diphenylacetyl)-azetidine-2-carboxylic acid]",372
10,CN(C)S(=O)(=O)NC(=O)[C@@H]1C[C@H](OCCCc2ccccc2)CN1C(=O)C(c1ccccc1)c1ccccc1 [Compound 50],67.3
11,"O=C(O)[C@@H]1C[C@H](N2CCCCC2Cc2ccccc2)CN1C(=O)C(c1ccccc1)c1ccccc1 (single isomer, unassigned) [Compound 70-B]",1340
12,"COc1ccc(C#CCN(C)[C@H]2C[C@@H](C(=O)O)N(C(=O)C(c3ccccc3)c3ccccc3)C2)cc1C [Compound 105, (2S,4S)-1-(2,2-diphenylacetyl)-4-((3-(4-methoxy-3-methylphenyl)prop-2-yn-1-yl)(methyl)amino)pyrrolidine-2-carboxylic acid]",2490

# Continued, values first:
row,IC50 [nM],Compound
1,3660,"CN(CCCc1ccccc1)[C@@H]1CN(C(=O)C(c2ccccc2)c2ccccc2)C[C@H]1C(=O)O (mixture of isomers) [Compound 67, (3R,4S)-1-(2,2-diphenylacetyl)-4-(methyl(3-phenylpropyl)amino)pyrrolidine-3-carboxylic acid and (3S,4R)-1-(2,2-diphenylacetyl)-4-(methyl(3-phenylpropyl)amino)pyrrolidine-3-carboxylic acid]"
2,12,"CN(CCCc1ccc(F)cc1)[C@H]1C[C@@H](C(=O)O)N(C(=O)C(c2ccccc2)c2ccccc2)C1 [Compound 91, (2S,4S)-1-(2,2-diphenylacetyl)-4-((3-(4-fluorophenyl)-propyl)(methyl)amino)pyrrolidine-2-carboxylic acid]"
3,107,"O=C(O)[C@@H]1C[C@H](N2CCCC2Cc2ccccc2)CN1C(=O)C(c1ccccc1)c1ccccc1 (single isomer, unassigned) [Compound 61-B, (3′S,5′S)-2-benzyl-V-(2,2-diphenylacetyl)-[1,3′-bipyrrolidine]-5′-carboxylic acid]"
4,134,"COc1ccc(CCCN(C)[C@H]2C[C@@H](C(=O)O)N(C(=O)C(c3ccccc3)c3ccccc3)C2)cc1C [Compound 92, (2S,4S)-1-(2,2-diphenylacetyl)-4-((3-(4-methoxy-3-methylphenyl)propyl)(methyl)amino)pyrrolidine-2-carboxylic acid]"
5,64.2,"CN(CCCCc1ccccc1)[C@H]1C[C@@H](C(=O)O)N(C(=O)C(c2ccccc2)c2ccccc2)C1 [Compound 90, (2S,4S)-1-(2,2-diphenylacetyl)-4-(methyl(4-phenylbutyl)-amino)pyrrolidine-2-carboxylic acid]"
6,652,"O=C(O)[C@@H]1C[C@H](SCCc2ccccc2)CN1C(=O)C(c1ccccc1)c1ccccc1 [Compound 131, (2S,4S)-1-(2,2-diphenylacetyl)-4-(phenethylthio)pyrrolidine-2-carboxylic acid]"
7,83.3,"O=C(O)[C@@H]1C[C@H](N2CCCC2Cc2ccccc2)CN1C(=O)C(c1ccccc1)c1ccccc1 (single isomer, unassigned) [Compound 61-A, (3′S,5′S)-2-benzyl-V-(2,2-diphenylacetyl)-[1,3′-bipyrrolidine]-5′-carboxylic acid]"
8,126,CN(CCCc1cccnc1)[C@H]1C[C@@H](C(=O)O)N(C(=O)C(c2ccccc2)c2ccccc2)C1 [Compound 93]
9,43.9,"O=C(O)[C@@H]1C[C@H](N2CCCC(Cc3ccccc3)C2)CN1C(=O)C(c1ccccc1)c1ccccc1 (stereo partly drawn) [Compound 53, (2S,4S)-4-(3-benzylpiperidin-1-yl)-1-(2,2-diphenylacetyl)-pyrrolidine-2-carboxylic acid]"
10,1240,"O=C(O)[C@@H]1C[C@H](S(=O)(=O)CCCc2ccccc2)CN1C(=O)C(c1ccccc1)c1ccccc1 [Compound 125, (2S,4S)-1-(2,2-diphenylacetyl)-4-((3-phenylpropyl)-sulfonyl)pyrrolidine-2-carboxylic acid]"
11,314,"O=C(O)[C@@H]1C[C@H](CS(=O)(=O)Cc2ccccc2)CN1C(=O)C(c1ccccc1)c1ccccc1 [Compound 118, (2S,4S)-4-((benzylsulfonyl)methyl)-1-(diphenylacetyl)-pyrrolidine-2-carboxylic acid]"
12,993,"O=C(O)[C@@H]1[C@@H](OCCCc2ccccc2)CN1C(=O)C(c1ccccc1)c1ccccc1 (mixture of isomers) [Compound 142, (2S,3S)-1-(2,2-diphenylacetyl)-3-(3-phenylpropoxy)-azetidine-2-carboxylic acid and (2R,3R)-1-(2,2-diphenylacetyl)-3-(3-phenylpropoxy)-azetidine-2-carboxylic acid]"
